US20240358684A1, “METHOD FOR ENHANCING INNATE IMMUNE RESPONSE” (Kyoto University, priority 2021, published 2024)
“And” between values parts separate entries of the source, which are not always exact repeats. Equal entries are not always repeated.

Legend:
OAS1 splice variants = test: RNA-Seq splice-junction reads for OAS1 splice variants in Calu-3 cells; assay type: cell-based, human; settings: Calu-3, 10 μM, 18 h
Experimental: Transcriptome analysis for compound 1-treated Calu-3 cells RNAs were extracted using RNeasy Mini kit (QIAGEN, Hilden, Germany) from Calu-3 cells, treated with 10 μM compound 1 or 0.1% DMSO for 18 h, and applied for RNA-Seq analysis. Three technical replicates for RNA-Seq, where each experiment was independently conducted three times from a stocked total RNA. RNA-seq reads were mapped to the human genome sequences (GRCh38) using STAR (ver. 2.7.1a, https://github.com/alexdobin/STAR) with ENCODE options, using the Ensembl genome annotation (ver. 102). Raw reads were counted with bam files, and TPM values were calculated using RSEM v1.2.31 (https://github.com/deweylab/RSEM). Differentially expressed genes were identified using the method described above. Differential alternative splicing (DAS) events were analyzed with the method previously described (Sakuma et al., 2015) using the rMATS program (http://rnaseq-mats.sourceforge.net/rmats4.1.1/). DAS was defined by the following criteria: FDR<0.01, read counts≥15, and delta Percent Spliced-In (PSI)≥0.05. The DAS events were compared with the gene annotation information, the event types were then classified into events on the exons constituting the productive mRNAs, events on additional exons/regions of the productive mRNAs, and others. For characterizing gene set and transcriptome profiles, the Metascape website (https://imetascape.org/) and Gene Set Enrichment Analysis (GSEA, https://ww.gsea-maigdb.org/gsea/) were used. The same samples were also used for RT-PCR.

CLK1 = target: T1, CLK1 (Homo sapiens, UniProt P49759); test: Inhibition confirmation test for CLK (off-chip mobility shift assay); assay type: biochemical; settings: ATP 10 μM; read-out: CLK1 inhibitory activity (IC50 value)
T1 construct: Enzyme activity was measured with off-chip mobility shift assay using purified CLK protein
T1 sequence (P49759 whole entry): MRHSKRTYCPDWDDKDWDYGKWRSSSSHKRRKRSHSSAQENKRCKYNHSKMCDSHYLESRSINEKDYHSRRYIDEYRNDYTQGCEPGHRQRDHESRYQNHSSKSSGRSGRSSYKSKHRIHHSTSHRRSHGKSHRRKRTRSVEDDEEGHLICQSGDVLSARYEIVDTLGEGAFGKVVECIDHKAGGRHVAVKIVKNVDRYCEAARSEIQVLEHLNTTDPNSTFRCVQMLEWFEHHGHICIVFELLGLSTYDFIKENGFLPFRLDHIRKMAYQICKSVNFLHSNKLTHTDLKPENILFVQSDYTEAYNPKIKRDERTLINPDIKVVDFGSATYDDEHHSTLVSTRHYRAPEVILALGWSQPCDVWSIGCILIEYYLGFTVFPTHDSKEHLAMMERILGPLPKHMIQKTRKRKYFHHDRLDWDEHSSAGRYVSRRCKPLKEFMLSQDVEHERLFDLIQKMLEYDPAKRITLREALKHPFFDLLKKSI
Experimental: Enzyme activity was measured with off-chip mobility shift assay using purified CLK protein. […] The enzyme reaction was performed at room temperature for 1 hour, and the reaction was terminated by adding QuickScout Screening Assist MSA (Carna Biosciences, Inc.). A substrate peptide and a phosphorylated peptide in the enzyme reaction solution were separated and quantified using the LabChip system (Perkin-Elmer, Waltham, MA, USA), and inhibition of CLK was evaluated by calculating a product ratio using the following formula, the substrate peptide peak height (S), and the phosphorylated peptide peak height (P).
(§1) (P/(P+S)) • P: product-derived peak • S: substrate-derived peak

IFNB1 = assay type: cell-based, human
CLK2 = target: T2, CLK2 (Homo sapiens, UniProt P49760); test: Inhibition confirmation test for CLK (off-chip mobility shift assay); assay type: biochemical; settings: ATP 150 μM; read-out: CLK2 inhibitory activity (IC50 value)
T2 construct: Enzyme activity was measured with off-chip mobility shift assay using purified CLK protein
T2 sequence (P49760 whole entry): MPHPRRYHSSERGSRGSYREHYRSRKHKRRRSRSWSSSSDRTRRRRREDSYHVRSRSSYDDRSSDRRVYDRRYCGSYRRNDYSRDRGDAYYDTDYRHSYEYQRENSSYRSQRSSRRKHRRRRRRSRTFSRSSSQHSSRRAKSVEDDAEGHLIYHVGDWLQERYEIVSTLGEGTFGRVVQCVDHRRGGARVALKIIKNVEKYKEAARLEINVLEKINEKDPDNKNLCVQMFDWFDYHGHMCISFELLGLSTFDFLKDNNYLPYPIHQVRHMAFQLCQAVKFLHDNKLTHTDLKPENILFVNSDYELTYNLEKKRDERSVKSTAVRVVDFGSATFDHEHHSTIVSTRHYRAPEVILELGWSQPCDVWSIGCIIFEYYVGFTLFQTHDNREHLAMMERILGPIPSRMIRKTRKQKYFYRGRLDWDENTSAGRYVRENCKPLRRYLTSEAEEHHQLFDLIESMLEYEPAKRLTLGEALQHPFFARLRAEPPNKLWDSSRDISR
Experimental: (§2) Enzyme activity was measured with off-chip mobility shift assay using purified CLK protein. DYRKtide-F peptide (1 μM) was used as a substrate, and a composition of a reaction solution used was as follows (20 mM HEPES (pH7.5), 0.01% Triton X-100, 1 mM DT7, 1% DMSO, and ATP (10 μM for CLK1, 150 μM for CLK2, and 75 μM for CLK3)). The enzyme reaction was performed at room temperature for 1 hour, and the reaction was terminated by adding QuickScout Screening Assist MSA (Carna Biosciences, Inc.). A substrate peptide and a phosphorylated peptide in the enzyme reaction solution were separated and quantified using the LabChip system (Perkin-Elmer, Waltham, MA, USA), and inhibition of CLK was evaluated by calculating a product ratio using the following formula, the substrate peptide peak height (S), and the phosphorylated peptide peak height (P).
as §1

CLK3 = target: T3, CLK3 (Homo sapiens, UniProt P49761); test: as above; assay type: biochemical; settings: ATP 75 μM; read-out: CLK3 inhibitory activity (IC50 value)
T3 construct: Enzyme activity was measured with off-chip mobility shift assay using purified CLK protein
T3 sequence (P49761 whole entry): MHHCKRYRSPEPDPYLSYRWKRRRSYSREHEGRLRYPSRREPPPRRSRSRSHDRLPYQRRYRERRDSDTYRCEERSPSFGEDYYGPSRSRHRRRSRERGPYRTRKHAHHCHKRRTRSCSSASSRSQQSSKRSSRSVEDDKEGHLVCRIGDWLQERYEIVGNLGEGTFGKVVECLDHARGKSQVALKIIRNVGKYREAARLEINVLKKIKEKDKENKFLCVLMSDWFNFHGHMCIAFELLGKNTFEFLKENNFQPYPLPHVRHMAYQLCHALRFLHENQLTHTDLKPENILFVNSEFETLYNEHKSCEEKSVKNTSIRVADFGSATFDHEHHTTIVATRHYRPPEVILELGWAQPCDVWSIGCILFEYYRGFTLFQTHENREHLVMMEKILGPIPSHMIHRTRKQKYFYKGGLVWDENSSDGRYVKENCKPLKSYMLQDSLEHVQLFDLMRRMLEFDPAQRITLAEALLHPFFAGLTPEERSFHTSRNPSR
Experimental: as §2, §1

[1] = test system: RNase L pathway (rRNA degradation)
SARS-CoV-2 = assay type: cell-based
[2] = test system: OAS1 rs10774671 A-allele splicing; test: RT-PCR for OAS1 alternative splicing profile in Calu-3 (A/A allele) cells; assay type: cell-based, human; settings: Calu-3, 10 μM, 24 h
[3] = test system: OAS1 exon 5 splice donor (SD) sequence; test: RNA pull-down assay with OAS1 exon 5 splice donor RNA and western blot; assay type: binding, human; settings: Calu-3 cell lysate, 10 μM
Experimental: Calu-3 whole cell lysates were prepared using a lysis buffer containing 10 mM Tris-HCl (pH 7.4), 150 mM NaCl, 1 mM ethylenediaminetetraacetic acid, 1% Triton X-100, 0.1% sodium dodecyl sulphate, 0.25% sodium deoxycholate, and 10% glycerol with protease inhibitors (Nacalai Tesque) and phosphatase inhibitors (Sigma-Aldrich, Munich, Germany), followed by sonication, treatment with DNase I (Promega. Madison, WI, USA) at 37° C. for 5 min, and centrifugation (24,000×g at 4° C. for 15 min). The supernatant was used as the soluble fraction for the RNA-pull down assay. […] This was followed by washing the resultant thrice with tris-buffered saline and elution with Laemmli buffer. Three technical replicates for RNA pull-down assay were independently conducted, three times from a stocked cell lysate. […] Chemiluminescent signals were detected using a ChemiDoc MP Imaging System (Bio-Rad, Hercules, CA, USA).

## N=C1NC(=O)/C(=C/c2ccc3c(c2)CCO3)S1 [compound 1]
OAS1 splice variants
  p42 variant suppressed (RNA-Seq): 51%
  p44a variant increased (RNA-Seq): 130%
  p44b variant increased (RNA-Seq): 100%
CLK1
  IC50: 21.6 nM
IFNB1
  transcription of IFNB1 during viral infection: increases
CLK2
  IC50: 68.3 nM
CLK3
  IC50: 116 nM
[1]
  28S rRNA peak fold change: 0.56
  concentration of decomposition products, sized 2,000-3,000 nucleotides, fold change: 1.35
SARS-CoV-2
  viral titer fold change: 0.56
SARS-CoV-2; 10 μM, 2nd batch replicates, listed as Compund 1
  log10 (TCID50/ml) Batch-effect corrected: 7.6 and 7.44 and 7.41
SARS-CoV-2; 10 μM, raw, single replicates of 1st and 2nd batch, listed as Compund 1
  log10 (TCID50/ml): 7.5 (2×) and 7.25 and 6.75 and 6.5 and 6.45
SARS-CoV-2; Calu-3 pre-treated 24 h with 10 μM, MOI 0.01, 48 hours pi, DMSO control 5.18×10^7
  viral titer: 2.90×10^7
[2]
  splice-switching for OAS1 with the A-allele (RT-PCR): suppressing p42 splicing while promoting p44a and p44b variant production
[3]
  U1snRNP (U1-70k) binding to OAS1 exon 5 donor site: enhanced
  phosphorylated SRSF6 in OAS1 SD pull-down products: not detected
